This passage reports GI50 and TGI results from PubChem BioAssay (NCI).

The structures appear in SMILES notation.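 All cell lines were grown in 96-well plates and treated with compound for 48 hours. GI50: concentration for 50% inhibition of growth. The concentration for full growth arrest is given as TGI.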 A value given as a limit tells only on which side of the number the result lay.

Some test systems named below: SN12C renal; KM12 colon; EKVX NSCLC; SF-539 CNS; UO-31 renal; HOP-62 NSCLC; MDA-MB-231 breast; UACC-257 melanoma; SNB-75 CNS; HOP-92 NSCLC.
Common to all, as to assay: inhibition of tumour cell growth, NCI panel, 48 h

For the compound `CCOC(=O)C1=C(C)N(Cc2ccc(Cl)cc2Cl)[C@]2(C#N)C(O)=C(Cl)C(Cl)=C(O)[C@]12C#N`, the GI50 in the experiment on SN12C renal is 73.9 µM; in the experiment on KM12 colon, greater than 100 µM; with EKVX NSCLC it was greater than 100 µM; in the experiment on SF-539 CNS, 14200 nM; in the experiment on UO-31 renal, 92000 nM; with HOP-62 NSCLC it was greater than 100000 nM. Moreover, the GI50 with MDA-MB-231 breast was 26.7 µM; in the experiment with UACC-257 melanoma it was greater than 100 µM; in the experiment on SNB-75 CNS, 32.2 µM; in the experiment on HOP-92 NSCLC it was 17900 nM. For the same compound, the TGI is greater than 100 µM with SN12C renal; greater than 100 µM in the experiment on KM12 colon; greater than 100 µM with EKVX NSCLC; 33.1 µM with SF-539 CNS; greater than 100 µM in the experiment on UO-31 renal; greater than 100 µM in the experiment with HOP-62 NSCLC. Besides, the TGI is 98.9 µM with MDA-MB-231 breast, greater than 100 µM with UACC-257 melanoma, 86.4 µM in the experiment with SNB-75 CNS and 44.2 µM in the experiment with HOP-92 NSCLC.

Turning to `O=S(=O)(NCCCNc1nccc(-c2c(-c3cccc(F)c3)nc3occn23)n1)c1cccc2ccccc12`, the GI50 in the experiment on SN12C renal is 3.44 µM; in the experiment with KM12 colon, 3.8 µM; in the experiment with EKVX NSCLC, 6.04 µM; in the experiment with SF-539 CNS, greater than 100000 nM; in the experiment on UO-31 renal, 3250 nM; with HOP-62 NSCLC, 97100 nM. In addition, the GI50 in the experiment with MDA-MB-231 breast is 3.13 µM; in the experiment with UACC-257 melanoma it was 21 µM; in the experiment on SNB-75 CNS, 3.38 µM; in the experiment on HOP-92 NSCLC, greater than 100000 nM. In addition, the TGI with SN12C renal, with KM12 colon, in the experiment on EKVX NSCLC, in the experiment with SF-539 CNS, with UO-31 renal and in the experiment with HOP-62 NSCLC was greater than 100 µM throughout. Besides, the TGI in the experiment on MDA-MB-231 breast, in the experiment on UACC-257 melanoma, in the experiment with SNB-75 CNS and in the experiment with HOP-92 NSCLC was greater than 100 µM in each case.

As for `Nc1c(C(=O)Nc2ccccn2)sc2nc3c(cc12)CCCCCC3`, the GI50 was 3.17 µM in the experiment on SN12C renal; 0.511 µM in the experiment with KM12 colon; 4.1 µM in the experiment on EKVX NSCLC; 580 nM in the experiment on SF-539 CNS; 4560 nM with UO-31 renal; 1550 nM in the experiment with HOP-62 NSCLC. For the same compound, the GI50 in the experiment with MDA-MB-231 breast is 2.5 µM; with UACC-257 melanoma it was 7.88 µM; in the experiment on SNB-75 CNS it was 0.649 µM; in the experiment with HOP-92 NSCLC, 1860 nM. Besides, the TGI in the experiment with SN12C renal was 37.3 µM; in the experiment on KM12 colon it was greater than 50 µM; in the experiment with EKVX NSCLC, 23.3 µM; in the experiment with SF-539 CNS, 3.07 µM; in the experiment with UO-31 renal, 22.2 µM; in the experiment on HOP-62 NSCLC it was 11 µM. Further, the TGI came to 15.2 µM in the experiment on MDA-MB-231 breast, 30.7 µM in the experiment with UACC-257 melanoma, 21.6 µM in the experiment with SNB-75 CNS and 11.4 µM in the experiment on HOP-92 NSCLC.

Regarding `N#Cc1cccc(C2C3=C(COC3=O)N(CCO)c3cc4c(cc32)CCC4)c1` (stereo unspecified), the GI50 with SN12C renal is 0.261 µM; in the experiment with KM12 colon, 0.136 µM; with EKVX NSCLC it was 0.259 µM; in the experiment with SF-539 CNS, 112 nM; in the experiment on UO-31 renal, 165 nM; in the experiment with HOP-62 NSCLC, 250 nM. The GI50 in the experiment with MDA-MB-231 breast was 0.22 µM; in the experiment on UACC-257 melanoma, greater than 50 µM; with SNB-75 CNS, 0.0393 µM; in the experiment with HOP-92 NSCLC it was 871 nM. For the same compound, the TGI is greater than 50 µM in the experiment with SN12C renal; greater than 50 µM with KM12 colon; greater than 50 µM in the experiment with EKVX NSCLC; 0.356 µM in the experiment with SF-539 CNS; greater than 31.7 µM in the experiment on UO-31 renal; greater than 50 µM in the experiment on HOP-62 NSCLC. Moreover, the TGI is greater than 50 µM in the experiment with UACC-257 melanoma and 35.3 µM with HOP-92 NSCLC.

In the case of `O=C(Nc1ccc(Cl)c(C(F)(F)F)c1)C(=O)c1c(O)c2ccccc2oc1=O`, the TGI in the experiment on SN12C renal, in the experiment on KM12 colon, with EKVX NSCLC, with SF-539 CNS, with UO-31 renal and with HOP-62 NSCLC was greater than 100 µM in each case. Also, the TGI in the experiment on MDA-MB-231 breast, in the experiment with UACC-257 melanoma, in the experiment with SNB-75 CNS and in the experiment on HOP-92 NSCLC was greater than 100 µM each time.

Consider `CCN(CC)C(=O)CCCCCn1c2ccccc2c2c3c(c4c5ccccc5[nH]c4c21)C(=O)N(O)C3=O`, for which the GI50 in the experiment on SN12C renal was 4.03 µM; in the experiment with KM12 colon, 3.31 µM; in the experiment with EKVX NSCLC, 10.9 µM; with SF-539 CNS, 1920 nM; with UO-31 renal, 1720 nM; in the experiment with HOP-62 NSCLC, 11600 nM. Further, the GI50 is 5.52 µM with MDA-MB-231 breast, 10.7 µM in the experiment with UACC-257 melanoma, 7.71 µM in the experiment on SNB-75 CNS and 2730 nM in the experiment on HOP-92 NSCLC. For the same compound, the TGI with SN12C renal was greater than 100 µM; in the experiment on KM12 colon, 14.7 µM; in the experiment with EKVX NSCLC, 58.4 µM; in the experiment on SF-539 CNS, 4.27 µM; with UO-31 renal, 4.22 µM; in the experiment with HOP-62 NSCLC, 47.8 µM. Further, the TGI is 82.5 µM in the experiment on MDA-MB-231 breast, 55.1 µM in the experiment with UACC-257 melanoma, greater than 100 µM in the experiment with SNB-75 CNS and 7.68 µM in the experiment with HOP-92 NSCLC.

In the case of `Nc1ccn([C@@H]2S[C@H](CO)[C@@H](O)[C@@H]2F)c(=O)n1`, the GI50 was 0.0405 µM in the experiment on SN12C renal; 8.65 µM in the experiment with KM12 colon; 0.648 µM in the experiment on EKVX NSCLC; 317 nM in the experiment with SF-539 CNS; 35.6 nM with UO-31 renal; 52.6 nM in the experiment with HOP-62 NSCLC. In addition, the GI50 is greater than 100 µM in the experiment with MDA-MB-231 breast, 1.34 µM in the experiment on UACC-257 melanoma, 2.73 µM with SNB-75 CNS and 278 nM in the experiment with HOP-92 NSCLC. For the same compound, the TGI with SN12C renal is greater than 100 µM; with KM12 colon it was greater than 100 µM; in the experiment on EKVX NSCLC, greater than 100 µM; in the experiment on HOP-62 NSCLC it was greater than 74.3 µM; in the experiment with MDA-MB-231 breast, greater than 100 µM; with UACC-257 melanoma it was greater than 100 µM. For the same compound, the TGI with SNB-75 CNS and in the experiment on HOP-92 NSCLC was greater than 100 µM in each case.
